Assay results taken from patent publication US20220233624A9, “ANTI-CANCER AND ANTI-PROLIFERATIVE COMPOSITIONS, AND METHODS FOR THEIR USE IN TREATING CANCER” (Natreon, Inc., priority 2020, published 2022).
Values joined by “and” are separate entries in the source; they are usually repeats but may differ in a detail not shown here. Equal entries are not always repeated. Where two headings read alike, the source gives them in different places.

How the values were obtained:
[1] = tested on: CLL (Chronic lymphocytic leukemia) PDCs; assay: Anti-proliferation assay on CLL PDCs; type: cell-based, human; conditions: for inhibition at 10 µM: Homo sapiens
Protocol: (§1) The outermost rows/columns of the plates were filled with PBS (pH 7.4) to avoid an edge-effect and were considered as blanks. Standardized aqueous extracts identified in Table 2 were prepared in main stock solutions by dissolving 1 mg of extract in 1 ml PBS (phosphate-buffered saline, pH 7.4). […] The plate was incubated in a CO2 incubator for 0/N incubation for 24 hours. […] Once extracts were added to incubated cells and mixed gently, the plate was given a brief spin and incubated in the CO2 incubator for 72 hours. The plate was removed from the incubator and 10 ul of detection reagent (CellTiterGlo®; Promega Corporation, Wisconsin, USA) added to each well of the 384 well plate. […] The assay described above is a two-dimensional (2D) assay.

[2] = tested on: Breast Cancer PDCs, ER/PR− Her2+ (Her2+); assay: Anti-proliferation assay on breast cancer Her2+ PDCs; type: cell-based, human; conditions: drug alone @ 10 uM; 10 µM
Protocol: as §1

[3] = tested on: Breast Cancer PDCs, ER/PR+ Her2 equivocal (HR+); assay: Anti-proliferation assay on breast cancer HR+ PDCs; type: cell-based, human; conditions: drug alone @ 10 uM; for inhibition at 10 µM: Homo sapiens
Protocol: as §1

[4] = tested on: Breast Cancer PDCs, Triple negative (TN), SB 36344; assay: Anti-proliferation assay on breast cancer TN PDCs; type: cell-based, human; conditions: drug alone @ 10 uM; for inhibition at 10 µM: Homo sapiens
Protocol: as §1

[5] = tested on: TN Breast Cancer cell line MDAMB-231; assay: Anti-proliferation assay on MDAMB-231 cells (72 h and 120 h); type: cell-based; conditions: Homo sapiens, MDA-MB-231, 10 uM
Protocol: Also, AyuFlex®, Capros®, and Ayuric® were tested in the anti-proliferative assay discussed above in the TN Breast Cancer cell line MDAMB-231. AyuFlex®, Capros®, and Ayuric® were incubated for 72 hours and 120 hours. The dose-response efficacy of AyuFlex®, Capros®, and Ayuric® after a 72-hour period of incubation was similar to that observed after a 120-hour period of incubation with the MDAMB-231 cells. Without being bound by theory, possibly this was due to saturation of cell growth at the 120-hour time-point.

[6] = tested on: AML (Acute myeloid leukemia) PDCs, M4 subtype (SB 33866); assay: Anti-proliferation assay on AML PDCs; type: cell-based, human; conditions: for inhibition at 10 µM: assay drug control @ 10 uM
Protocol: Anti-proliferation assays were performed on 6 types of primary patient-derived cancer cells (PDCs) from 6 different human donors, as described in Table 1:
Tests were performed in 384-well plates (24×16), using 1250 to 10,000 cells/well depending on the size and proliferation rate of different PDCs, in 30 ul of culture media (DMEM/F12 with serum and growth factors), with control wells set aside on each plate for media alone (4 wells), untreated PDCs (4 wells), and for PDCs treated with 10 ul of a known anti-cancer drug as a control. […] The outermost rows/columns of the plates were filled with PBS (pH 7.4) to avoid an edge-effect and were considered as blanks.
Standardized aqueous extracts identified in Table 2 were prepared in main stock solutions by dissolving 1 mg of extract in 1 ml PBS (phosphate-buffered saline, pH 7.4).
Anti-Proliferation Assay Protocol: 30 ul of cells were plated at the density of 1250 to 10,000 cells/well. The plate was incubated in a CO2 incubator for 0/N incubation for 24 hours. […] Final assay concentrations of made from stock solutions of standardized aqueous extracts identified in Table 2 were 100 ug/ml, 30 ug/ml, and 10 ug/ml. Since 10 ul extract was added to 30 ul of cell suspension, it diluted 4 times, so to maintain the final assay concentrations, 4× concentrated extract solutions (400 ug/ml, 120 ug/ml, and 40 ug/mo) were prepared from main stock (1 mg/ml) and added to the plate. In all experiments, 10 ul of 4 times concentrated stock (4×) was added to wells containing 30 ul of cell suspension to achieve final assay concentrations at 1X.
Once extracts were added to incubated cells and mixed gently, the plate was given a brief spin and incubated in the CO2 incubator for 72 hours. The plate was removed from the incubator and 10 ul of detection reagent (CellTiterGlo®; Promega Corporation, Wisconsin, USA) added to each well of the 384 well plate. The plate was incubated (10 min) and luminescence counts measured, with luminescence produced proportional to the number of viable (living, metabolically active) cells for each assay. The assay described above is a two-dimensional (2D) assay.
In this Example, AML drugs were used as disease specific controls.
As discussed above in Example I, 6 extracts (Ayuflex®, Capros®, Phyto-BGS®, PrimaVie®, Sensoril®, and Ayuric®) were tested on AML PDC-SB cells (33866, M-4 type, subject) at 3 concentrations: 100 ug/ml, 30 ug/ml, and 10 ug/ml.

[7] = tested on: Non-small cell lung cancer cells (cell line NCI-H-358); assay: Anti-proliferation assay on non-small cell lung cancer cells; type: cell-based; conditions: Homo sapiens, NCI-H358
Protocol: Anti-proliferative and anti-cancer activity of extracts of this invention on non-small cell lung cancer cells and colon cancer cells were assessed generally as described in Example I and are discussed below. […] As noted throughout this application, the below data is intended to describe the present invention but not to be limiting.
Non-small cell lung cancer cells (cell line NCI-H-358) and colon cancer cells (cell line HT-29) were plated in a 384-well plate in amounts of about 1.25 k cells/well. […] Wells with untreated cells and with plain media were also included as controls. Plates passed quality control parameters.

[8] = read-out: % Inhibition, single replicates

`COc1cccc2c1C(=O)c1c(O)c3c(c(O)c1C2=O)C[C@@](O)(C(=O)CO)C[C@@H]3O[C@H]1C[C@H](N)[C@H](O)[C@H](C)O1` [Doxorubicin, doxorubicin] showed an inhibition at 10 µM ([1]; Doxorubicin @ 10 uM, read-out: % Inhibition Avg) of 2%, an inhibition at 10 µM ([1]; Doxorubicin @ 10 uM, read-out: % Inhibition n1) of 16% and an inhibition at 10 µM ([1]; Doxorubicin @ 10 uM, read-out: % Inhibition n2) of -9%. It also gave an inhibition at 10 µM ([1]; Doxorubicin @ 10 uM, read-out: % Inhibition n3) of 1%, an inhibition at 10 µM ([1]; drug alone @ 10 uM, read-out: % Inhibition Avg) of 55% and an inhibition at 10 µM ([1]; drug alone @ 10 uM, read-out: % Inhibition, single replicates) of 50%. For the same compound, the “% Inhibition, single replicates” value ([1]; drug alone @ 10 uM, 10 µM) was 61%, the “anti-cancer activity (in words)” value ([1]; extracts 100, 30, 10 ug/ml, doxorubicin 10 uM) was “relatively low inhibitory activity” and the “% Inhibition Avg” value [2] was 60% and 96%. The “% Inhibition, single replicates” value [2] was 62% and 58% and 95% and 97%, the inhibition at 10 µM ([3]; read-out: % Inhibition Avg) was 78% and the inhibition at 10 µM [3, 8] was 75%. For the same compound, the “% Inhibition Avg” value ([3]; 10 µM) was 77%, the “% Inhibition, single replicates” value ([3]; 10 µM) was 81% and the inhibition at 10 µM ([4]; read-out: % Inhibition Avg) was 73%. The inhibition at 10 µM [4, 8] was 73%, the “% Inhibition Avg” value ([4]; 10 µM) was 93% and the “% Inhibition, single replicates” value ([4]; 10 µM) was 72% and 91% and 92%. The inhibition at 10 µM ([5]; 72 hour incubation, read-out: % Inhibition Avg) was 75%, the inhibition at 10 µM ([5]; 72 hour incubation, read-out: % Inhibition n1) was 78% and the inhibition at 10 µM ([5]; 72 hour incubation, read-out: % Inhibition n2) was 73%. It also gave an inhibition at 10 µM ([5]; 72 hour incubation, read-out: % Inhibition n3) of 73%, an inhibition at 10 µM ([5]; 120 hour incubation, read-out: % Inhibition Avg) of 92% and an inhibition at 10 µM ([5]; 120 hour incubation, read-out: % Inhibition n1) of 94%. The inhibition at 10 µM ([5]; 120 hour incubation, read-out: % Inhibition n2) was 91%, the inhibition at 10 µM ([5]; 120 hour incubation, read-out: % Inhibition n3) was 92% and the “Inhibitory Concentration IC75” value ([6]; AML cells (M4)) was 0.26 µM. The inhibition at 10 µM ([6]; Homo sapiens, read-out: % Inhibition Avg) was 72%, the inhibition at 10 µM ([6]; Homo sapiens, read-out: % Inhibition n1) was 70% and the inhibition at 10 µM ([6]; Homo sapiens, read-out: % Inhibition n2) was 73%. It also gave an inhibition at 3 µM ([6]; Homo sapiens, drug alone 3 uM, read-out: inhibition of AML proliferation) of 100%, an inhibition at 3 µM ([6]; Homo sapiens, drug alone @ 3 uM, read-out: % Inhibition Avg) of 100% and an inhibition at 3 µM ([6]; Homo sapiens, drug alone @ 3 uM, read-out: % Inhibition n1) of 100%. It also gave an inhibition at 3 µM ([6]; Homo sapiens, drug alone @ 3 uM, read-out: % Inhibition n2) of 100%, an inhibition at 3 µM ([6]; Homo sapiens, drug alone @ 3 uM, read-out: % Inhibition n3) of 100% and an IC50 ([6]; Homo sapiens, AML cells (M4), read-out: Inhibitory Concentration IC50) of 0.103 µM. For the same compound, the inhibition at 10 µM ([7]; drug 10 uM, read-out: inhibition of proliferation) was 78%, the inhibition at 10 µM ([7]; plate control @ 10 uM, read-out: % Inhibition Average (SD)) was 78% and the inhibition at 10 µM ([7]; plate control @ 10 uM, read-out: % Inhibition n1) was 79%. It also gave an inhibition at 10 µM ([7]; plate control @ 10 uM, read-out: % Inhibition n2) of 77% and an inhibition at 10 µM ([7]; plate control @ 10 uM, read-out: % Inhibition n3) of 77%.
